From ChEMBL document CHEMBL1121444, “Biological significance and therapeutic potential of prostacyclin” (J Med Chem, 1980)

Assay: Compound was evaluated for half life at 37 degree Centigrade

| half-life [min] | Compound |
| --- | --- |
| 0.5 | CCCCC[C@H](O)/C=C/C1OC2CC(O2)[C@@H]1C/C=C\CCCC(=O)O (some centres not stated) |
| 3 | CCCCC[C@H](O)/C=C/[C@@H]1[C@H]2C/C(=C/CCCC(=O)O)O[C@H]2C[C@H]1O [EPOPROSTENOL] |
